According to ChEMBL document CHEMBL5316357, “Discovery of Linvencorvir (RG7907), a Hepatitis B Virus Core Protein Allosteric Modulator, for the Treatment of Chronic HBV Infection” (J Med Chem, 2023):

Tests used:
[1] = Tmax in female Wistar Han rat at 3 mg/kg,po by LC-MS/MS analysis; assay type: ADME, organism-based; details: in vivo
[2] = Tmax in female minipig at 30 mg/kg,po by LC-MS/MS analysis; assay type: ADME, organism-based, Sus scrofa domesticus; details: pig, in vivo
[3] = Oral bioavailability in male Wistar Han rat at 3 mg/kg by LC-MS/MS analysis; assay type: ADME, organism-based; details: in vivo
[4] = AUClast in male minipig at 10 mg/kg,po by LC-MS/MS analysis; assay type: ADME, organism-based, Sus scrofa domesticus; set-up: dose 10 mg/kg, route po; details: pig, in vivo
[5] = Tmax in female minipig at 10 mg/kg,po by LC-MS/MS analysis; assay type: ADME, organism-based, Sus scrofa domesticus; details: pig, in vivo
[6] = Tmax in female cynomolgus monkey at 10 mg/kg,po by LC-MS/MS analysis; assay type: ADME, organism-based, Macaca fascicularis; details: in vivo
Cytochrome P450 2D6 = Cytochrome P450 2D6 (Homo sapiens, UniProt P10635); assay: Inhibition of CYP2D6 (unknown origin); assay type: ADME
[7] = Octanol-water partition coefficient, logD of the compound at pH 7.4; assay type: physicochemical
[8] = Toxicity in rat assessed as NOAEL administrated upto 28 days; details: in vivo, time < 28 day
[9] = AUC (0-infinity) in mouse liver at 3 mg/kg,po; assay type: ADME, organism-based; set-up: dose 3 mg/kg, route po
[10] = Cmax in female Wistar Han rat at 3 mg/kg,po by LC-MS/MS analysis; assay type: ADME, organism-based; set-up: dose 3 mg/kg, route po; details: in vivo
[11] = Cmax in female minipig at 10 mg/kg,po by LC-MS/MS analysis; assay type: ADME, organism-based, Sus scrofa domesticus; set-up: dose 10 mg/kg, route po; details: pig, in vivo
[12] = Tmax in female minipig at 3 mg/kg,po by LC-MS/MS analysis; assay type: ADME, organism-based, Sus scrofa domesticus; details: pig, in vivo
[13] = Clearance in rat hepatocyte at 2 uM measured upto 120 mins by LC-MS/MS analysis; assay type: ADME, cell-based; details: hepatocytes
[14] = Clearance in Wistar Han rat at 2 mg/kg,iv by LC-MS/MS analysis; assay type: ADME, organism-based; details: in vivo
[15] = AUClast in minipig at 2 mg/kg,iv by LC-MS/MS analysis; assay type: ADME, organism-based, Sus scrofa domesticus; set-up: dose 2 mg/kg, route iv; details: pig, in vivo
[16] = AUClast in male cynomolgus monkey at 3 mg/kg,po by LC-MS/MS analysis; assay type: ADME, organism-based, Macaca fascicularis; set-up: dose 3 mg/kg, route po; details: in vivo
[17] = Tmax in male cynomolgus monkey at 3 mg/kg,po by LC-MS/MS analysis; assay type: ADME, organism-based, Macaca fascicularis; details: in vivo
[18] = Oral bioavailability in female Wistar Han rat at 3 mg/kg by LC-MS/MS analysis; assay type: ADME, organism-based; details: in vivo
[19] = Cmax in male cynomolgus monkey at 3 mg/kg,po by LC-MS/MS analysis; assay type: ADME, organism-based, Macaca fascicularis; set-up: dose 3 mg/kg, route po; details: in vivo
[20] = AUClast in female minipig at 30 mg/kg,po by LC-MS/MS analysis; assay type: ADME, organism-based, Sus scrofa domesticus; set-up: dose 30 mg/kg, route po; details: pig, in vivo
[21] = Tmax in male Wistar Han rat at 30 mg/kg,po by LC-MS/MS analysis; assay type: ADME, organism-based; details: in vivo
[22] = Oral bioavailability in rat plasma at 3 mg/kg; assay type: ADME, organism-based; details: plasma
[23] = AUClast in male minipig at 3 mg/kg,po by LC-MS/MS analysis; assay type: ADME, organism-based, Sus scrofa domesticus; set-up: dose 3 mg/kg, route po; details: pig, in vivo
[24] = AUClast in cynomolgus monkey at 2 mg/kg,iv by LC-MS/MS analysis; assay type: ADME, organism-based, Macaca fascicularis; set-up: dose 2 mg/kg, route iv; details: in vivo
[25] = Half life in female cynomolgus monkey at 3 mg/kg,po by LC-MS/MS analysis; assay type: ADME, organism-based, Macaca fascicularis; details: in vivo
[26] = Oral bioavailability in female minipig at 30 mg/kg by LC-MS/MS analysis; assay type: ADME, organism-based, Sus scrofa domesticus; details: pig, in vivo
[27] = Clearance in rat plasma at 1 mg/kg,iv; assay type: ADME, organism-based
Cytochrome P450 1A2 = molecular target: T1, Cytochrome P450 1A2 (Homo sapiens, UniProt P05177); assay: Inhibition of CYP1A2 (unknown origin); assay type: ADME
T1 sequence (P05177 whole entry): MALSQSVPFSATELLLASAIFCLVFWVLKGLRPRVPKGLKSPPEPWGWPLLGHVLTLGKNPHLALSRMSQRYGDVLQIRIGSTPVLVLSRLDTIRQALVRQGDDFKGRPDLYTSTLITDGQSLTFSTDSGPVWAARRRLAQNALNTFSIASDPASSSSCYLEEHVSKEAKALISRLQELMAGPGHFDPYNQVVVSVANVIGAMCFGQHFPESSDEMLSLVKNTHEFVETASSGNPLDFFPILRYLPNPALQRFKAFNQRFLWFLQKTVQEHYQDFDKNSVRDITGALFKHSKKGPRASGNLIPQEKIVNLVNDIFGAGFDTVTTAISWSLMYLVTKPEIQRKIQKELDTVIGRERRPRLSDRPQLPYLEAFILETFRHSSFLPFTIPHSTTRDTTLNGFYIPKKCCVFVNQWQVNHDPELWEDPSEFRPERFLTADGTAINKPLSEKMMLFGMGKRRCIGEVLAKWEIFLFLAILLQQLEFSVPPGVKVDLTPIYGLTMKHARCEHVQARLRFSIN

[28] = AUC (0-infinity) in rat plasma at 3 mg/kg,po; assay type: ADME, organism-based; set-up: dose 3 mg/kg, route po; details: plasma
[29] = Oral bioavailability in female cynomolgus monkey at 10 mg/kg by LC-MS/MS analysis; assay type: ADME, organism-based, Macaca fascicularis; details: in vivo
[30] = Clearance in minipig at 2 mg/kg,iv by LC-MS/MS analysis; assay type: ADME, organism-based, Sus scrofa domesticus; details: pig, in vivo
[31] = Half life in female Wistar Han rat at 10 mg/kg,po by LC-MS/MS analysis; assay type: ADME, organism-based; details: in vivo
[32] = Oral bioavailability in female minipig at 10 mg/kg by LC-MS/MS analysis; assay type: ADME, organism-based, Sus scrofa domesticus; details: pig, in vivo
[33] = Half life in male minipig at 30 mg/kg,po by LC-MS/MS analysis; assay type: ADME, organism-based, Sus scrofa domesticus; details: pig, in vivo
[34] = Cmax in male minipig at 3 mg/kg,po by LC-MS/MS analysis; assay type: ADME, organism-based, Sus scrofa domesticus; set-up: dose 3 mg/kg, route po; details: pig, in vivo
[35] = Tmax in male Wistar Han rat at 3 mg/kg,po by LC-MS/MS analysis; assay type: ADME, organism-based; details: in vivo
[36] = Half life in male cynomolgus monkey at 10 mg/kg,po by LC-MS/MS analysis; assay type: ADME, organism-based, Macaca fascicularis; details: in vivo
[37] = Cmax in female cynomolgus monkey at 30 mg/kg,po by LC-MS/MS analysis; assay type: ADME, organism-based, Macaca fascicularis; set-up: dose 30 mg/kg, route po; details: in vivo
[38] = Cmax in female minipig at 3 mg/kg,po by LC-MS/MS analysis; assay type: ADME, organism-based, Sus scrofa domesticus; set-up: dose 3 mg/kg, route po; details: pig, in vivo
[39] = AUClast in male cynomolgus monkey at 30 mg/kg,po by LC-MS/MS analysis; assay type: ADME, organism-based, Macaca fascicularis; set-up: dose 30 mg/kg, route po; details: in vivo
[40] = AUClast in male minipig at 30 mg/kg,po by LC-MS/MS analysis; assay type: ADME, organism-based, Sus scrofa domesticus; set-up: dose 30 mg/kg, route po; details: pig, in vivo
[41] = Cmax in male minipig at 10 mg/kg,po by LC-MS/MS analysis; assay type: ADME, organism-based, Sus scrofa domesticus; set-up: dose 10 mg/kg, route po; details: pig, in vivo
[42] = Volume of distribution at steady state in minipig at 2 mg/kg,iv by LC-MS/MS analysis; assay type: ADME, organism-based, Sus scrofa domesticus; details: pig, in vivo, read-out: Vdss
[43] = AUClast in female cynomolgus monkey at 10 mg/kg,po by LC-MS/MS analysis; assay type: ADME, organism-based, Macaca fascicularis; set-up: dose 10 mg/kg, route po; details: in vivo
[44] = Oral bioavailability in male minipig at 3 mg/kg by LC-MS/MS analysis; assay type: ADME, organism-based, Sus scrofa domesticus; details: pig, in vivo
[45] = Cmax in male Wistar Han rat at 30 mg/kg,po by LC-MS/MS analysis; assay type: ADME, organism-based; set-up: dose 30 mg/kg, route po; details: in vivo
[46] = Tmax in female cynomolgus monkey at 3 mg/kg,po by LC-MS/MS analysis; assay type: ADME, organism-based, Macaca fascicularis; details: in vivo
[47] = Oral bioavailability in male minipig at 30 mg/kg by LC-MS/MS analysis; assay type: ADME, organism-based, Sus scrofa domesticus; details: pig, in vivo
[48] = Tmax in male cynomolgus monkey at 30 mg/kg,po by LC-MS/MS analysis; assay type: ADME, organism-based, Macaca fascicularis; details: in vivo

Cytochrome P450 2D6, sequence (P10635 whole entry): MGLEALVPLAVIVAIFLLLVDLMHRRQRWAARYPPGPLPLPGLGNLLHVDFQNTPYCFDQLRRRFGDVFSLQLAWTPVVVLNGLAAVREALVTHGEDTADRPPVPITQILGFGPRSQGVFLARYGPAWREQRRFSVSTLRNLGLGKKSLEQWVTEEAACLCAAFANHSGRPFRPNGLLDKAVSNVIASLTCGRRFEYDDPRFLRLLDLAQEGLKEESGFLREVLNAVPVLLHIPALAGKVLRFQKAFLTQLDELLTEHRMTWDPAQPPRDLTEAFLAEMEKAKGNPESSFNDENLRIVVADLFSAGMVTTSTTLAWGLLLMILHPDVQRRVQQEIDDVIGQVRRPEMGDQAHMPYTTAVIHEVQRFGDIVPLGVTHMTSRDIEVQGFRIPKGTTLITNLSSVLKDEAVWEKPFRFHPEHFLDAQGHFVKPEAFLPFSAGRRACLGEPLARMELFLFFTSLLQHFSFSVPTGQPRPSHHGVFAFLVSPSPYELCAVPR

Work on CCOC(=O)C1=C(CN2CCN3C(=O)N(CC(C)(C)C(=O)O)C[C@@H]3C2)NC(c2nccs2)=N[C@H]1c1cccc(F)c1C [LINVENCORVIR] yielded a Tmax [1] of 0.5 h, a Tmax [2] of 2 h and a bioavailability [3] of 13.5%. It also gave an AUC(0-t) [4] of 1240 ng·h/mL, a Tmax [5] of 0.5 h and a Tmax [6] of 0.5 h. For the same compound, the IC50 (Cytochrome P450 2D6) was > 50 µM, the logD [7] was 1.75 and the NOAEL at 672 h [8] was 250 mg/kg. It also gave an AUC(0-inf) [9] of 8850 ng·h/mL, a Cmax [10] of 80.4 ng/mL and a Cmax [11] of 132 ng/mL. For the same compound, the Tmax [12] was 1 h, the CLhep predicted at 2 µM [13] was 11 mL/min/kg and the clearance [14] was 30.5 mL/min/kg. It also gave an AUC(0-t) [15] of 1370 ng·h/mL, an AUC(0-t) [16] of 280 ng·h/mL and a Tmax [17] of 0.25 h. It also gave a bioavailability [18] of 14.3%, a Cmax [19] of 64 ng/mL and an AUC(0-t) [20] of 2550 ng·h/mL. The Tmax [21] was 1 h, the bioavailability [22] was 14% and the AUC(0-t) [23] was 228 ng·h/mL. For the same compound, the AUC(0-t) [24] was 1490 ng·h/mL, the half-life [25] was 5.92 h and the bioavailability [26] was 12.4%. For the same compound, the clearance [27] was 30 mL/min/kg, the IC50 (Cytochrome P450 1A2) was > 50 µM and the AUC(0-inf) [28] was 70 ng·h/mL. For the same compound, the bioavailability [29] was 18.2%, the clearance [30] was 24.1 mL/min/kg and the half-life [31] was 1.53 h. It also gave a bioavailability [32] of 11.4%, a half-life [33] of 7.64 h and a Cmax [34] of 67.3 ng/mL. The Tmax [35] was 0.5 h, the half-life [36] was 6.64 h and the Cmax [37] was 841 ng/mL. For the same compound, the Cmax [38] was 46 ng/mL, the AUC(0-t) [39] was 7120 ng·h/mL and the AUC(0-t) [40] was 4150 ng·h/mL. The Cmax [41] was 248 ng/mL, the Vd [42] was 1.12 L/kg and the AUC(0-t) [43] was 1060 ng·h/mL. It also gave a bioavailability [44] of 12.6%, a Cmax [45] of 1350 ng/mL and a Tmax [46] of 0.25 h. The bioavailability [47] was 20.6% and the Tmax [48] was 2 h.
